Test results as given in US8859615B2, “Compounds, compositions and methods for reducing toxicity and treating or preventing diseases” (priority 2008, dated 2014).
“Also recorded” adds a separate entry of the source. Read-outs that look alike come from different tables or passages of the source.

Legend:
[1] = test system: CCRF-CEM human T-cell acute lymphoblastic leukemia cells; assay: In vitro cytotoxicity against CCRF-CEM (XTT / CCK-8 tetrazolium assay, 72 hr); settings: for IC50: Homo sapiens
[2] = test system: human mammary carcinoma MX-1 xenograft; assay: Therapeutic effect and body weight in nude mice bearing MX-1 xenograft, single agents; settings: for antitumor effects against MX-1 xenografts: mouse, in vivo; for body weight decrease upon treatment: up to the highest dosage levels (100 mg/kg)
Description: FIGS. 1A and 1B show the therapeutic, anti-cancer effects of various dosage regimens of panaxytriol and Compound (A), respectively, given by i.v. injection in nude mice bearing human mammary carcinoma MX-1 xenograft tumors, which is an in vivo model for breast cancer. […] The compounds were administered starting on day 8.
An in vivo assay uses male athymic nude mice bearing the nu/nu gene (6 weeks of age or older, weighing between 20 and 22 g, obtainable from NCl, Frederick, Md.) into which one or more human tumor xenografts are been implanted.
Nude mice having human mammary carcinoma xenograft MX-1 were treated with panaxytriol or Compound (A) at various dosages through the slow i.v. infusion protocol by Chou et al. (Chou, T. C., et al, Proc. Natl. Acad. Sci. U.S.A. 95: 15798 (1998), the contents of which are herein incorporated by reference in their entirety).

[3] = test system: normal human PBMC lymphocytes; assay: Human PBMC lymphocyte viability by actual cell counts (hemacytometer; Tables 8A, 8B, FIG. 9); format: cell-based; settings: for survival / proliferation of normal PBMC lymphocytes: low concentrations, Tables 8
Text: (§1) FIGS. 9A & 9B show effects of panaxytriol and Compound D, respectively, in varying doses at 24 (▪), 72 (●), and 120 (▴) hours on human PBMC lymphocyte survival based on actual cell counts. In both cases, lower amounts of the compounds increase cell proliferation. […] Cell counts in controls without active agent were: at 24 hrs: 75.4%; at 72 hrs: 93.0%; and at 120 hrs: 85.7%. FIG. 9 parallel the experiments in FIG. 8 but used a different method to determine cell survival; the method used in FIG. 9 was actual cell counting using a hemocytometer and microscope.
(§2) The effects of panaxytriol and Compound D on the viability of normal human PBMC lymphocytes shown in Tables 8A and 8B were determined using hemacytometer/microscope determinations. PBMC cells were obtained fresh from the New York Blood Center, New York, N.Y. 10021 (Dr. S. B. Jiang). Cell counts were performed in duplicate for 0, 0.1, 0.3, 1.0, 3.0, and 10.0 μM of each compound at the end of 24 hr, 72 hr, and 120 hr incubations. Incubation was carried out in RPMI 1640 medium (GIBCO/BRL) with 10% heat inactivated fetal bovine serum. […] Acad. Sci. USA 98: 8113-8118, 2001.

[4] = as above; format: cell-based; settings: human
Text: as §1, §2

[5] = test system: CCRF-CEM/VBL100 vinblastine-resistant cells; assay: In vitro cytotoxicity against vinblastine-resistant CCRF-CEM subline; format: cell-based, human; settings: for IC50: Homo sapiens, CCRF-CEM, 72 h; for fold of cross-resistance (CCRF-CEM/Vinblastine vs parent cell line): Table 3D, given as x or -fold
leukemic CCRF CEM cells = assay: Precursor incorporation into DNA, RNA and protein (Table 9); format: cell-based, human
Description: The radioactive tracer studies were carried out as described by Chou T C, et al. Cancer Res. 43: 3074-3079, 1983.

[6] = test system: CCRF-CEM subline resistant to TAXOL; assay: In vitro cytotoxicity against TAXOL-resistant CCRF-CEM subline; format: cell-based, human; settings: for IC50: Homo sapiens, CCRF-CEM; for fold of cross-resistance (CCRF-CEM/TAXOL vs parent cell line): Table 3D, given as x or -fold
[7] = CCRF-CEM, 72 h, read-out: CCRF-CEM (IC50 in μM), Table 3A-2, CCK-8, 72-hr exposure
[8] = CCRF-CEM, 72 h, read-out: IC50 CCRF-CEM, Table 3D, CCK-8, 72-hr incubation
[9] = read-out: IC50 CCRF-CEM/Vinblastine
[10] = Homo sapiens, CCRF-CEM, 100 μM, 60 min, ↓ (inhibition), read-out: [3H] Leu → Protein (% Activation ↑ or Inhibition ↓)
[11] = low concentration (panaxytriol 30 μM, Compound D 6 μM), 15 min incubation
[12] = 72 h, read-out: IC50 CCRF-CEM/TAXOL

## C=C[C@H](O)C#CC#CC[C@H]1OC(C)(C)O[C@@H]1CCCCCCC [Compound (D)]
[1]
  anti-cancer activity in the in vitro cytotoxicity assay: active against cancer
[1]; [7]
  IC50: 1.14 µM
[1]; [8]
  IC50: 0.478 µM
[1]; CCRF-CEM, read-out: IC50 (in μM), cytotoxic potency against cancer cell line growth in vitro, Table 3C, cell line not given
  IC50: 0.48 µM
[1]; Table 3A
  potency relative to Compound (A) in vitro: about 1.44 fold
[1]; Table 3A, CCRF-CEM
  analog is fold more potent (than Compound (A)): is 1.68-fold
[2]; 10 mg/kg i.v. Q4D×4
  MX-1 xenograft suppressed by the compound by itself: 10%
[2]; 15 mg/kg Q2D×1, 40 mg/kg Q2D×4
  MX-1 xenograft inhibited: 38.3%
[2]; MX-1 xenografts
  effectiveness compared with panaxytriol: more effective at lower doses than panaxytriol
[2]
  antitumor effects against MX-1 xenografts: antitumor effects
[3]; human
  high concentrations increasing cell death: 3 to 10 µM
[3]
  survival / proliferation of normal PBMC lymphocytes: increased the survival
[4]
  viability at 24 h, 0.1 µM: 101%
  viability at 24 h, 0.3 µM: 118%
  viability at 24 h, 1 µM: 78.4%
  viability at 24 h, 3 µM: 90.5%
  viability at 24 h, 10 µM: 7.5%
  viability at 72 h, 0.1 µM: 116%
  viability at 72 h, 0.3 µM: 108%
  viability at 72 h, 1 µM: 89.7%
  viability at 72 h, 3 µM: 66.8%
  viability at 72 h, 10 µM: 33.2%
  viability at 120 h, 0.1 µM: 78.2%
  viability at 120 h, 0.3 µM: 73.6%
  viability at 120 h, 1 µM: 102%
  viability at 120 h, 3 µM: 68%
  viability at 120 h, 10 µM: 27.4%
[5]; Table 3A-2, CCK-8, 72-hr exposure, read-out: CCRF-CEM/VBL (IC50 in μM)
  IC50: 2.55 µM
[5]; [9]
  IC50: 0.947 µM
[5]; TAXOL- or vinblastine-resistant (MDR) sublines
  cross-resistance to TAXOL or vinblastine: do not appear to be cross-resistant to TAXOL or vinblastine
[5]; Table 3A-2
  Fold of resistance (IC50 ratio CCRF-CEM/VBL vs CCRF-CEM): 2.24 fold
[5]; Table 3A, CCRF-CEM/VBL
  analog is fold more potent (than Compound (A)): (analog is 1.19-fold
[5]
  fold of cross-resistance (CCRF-CEM/Vinblastine vs parent cell line): 1.98 fold
Leukemic CCRF CEM cells
  effect on protein synthesis: inhibitory effects
Leukemic CCRF CEM cells; 6 μM, 15 min, ↑ (activation)
  [3H]-AdR → RNA (% Activation ↑ or Inhibition ↓): 35.3 ↑ %
  [3H]-dThd → DNA (% Activation ↑ or Inhibition ↓): 13.2 ↑ %
Leukemic CCRF CEM cells; 100 μM, 60 min, ↓ (inhibition)
  [3H]-AdR → RNA (% Activation ↑ or Inhibition ↓): 72.5 ↓ %
  [3H]-dThd → DNA (% Activation ↑ or Inhibition ↓): 69.5 ↓ %
Leukemic CCRF CEM cells; 100 μM, 60 min incubation
  effect on DNA and RNA synthesis: inhibitory
Leukemic CCRF CEM cells; Homo sapiens, CCRF-CEM, 6 μM, 15 min, ↓ (inhibition), read-out: [3H] Leu → Protein (% Activation ↑ or Inhibition ↓)
  inhibition at 6 µM: 45.2%
Leukemic CCRF CEM cells; [10]
  inhibition at 100 µM: 69.5%
Leukemic CCRF CEM cells; [11]
  effect on DNA and RNA synthesis: activate
[6]; [12]
  IC50: 1.03 µM
[6]; Table 3A-2, CCK-8, 72-hr exposure, read-out: CCRF-CEM/TAXOL (IC50 in μM)
  IC50: 1.02 µM
[6]; Table 3A-2
  Fold of resistance (IC50 ratio CCRF-CEM/TAXOL vs CCRF-CEM): 0.90 fold
[6]
  fold of cross-resistance (CCRF-CEM/TAXOL vs parent cell line): 2.17 fold

## C=C[C@@H](O)C#CC#CC[C@@H](O)[C@H](O)CCCCCCC [panaxytriol]
[1]; [7]
  IC50: 3.68 µM
[1]; CCRF-CEM, 72 h, read-out: IC50 CCRF-CEM, Table 3, XTT, 72-hour
  IC50: 12.1 ± 1.57 µM
[1]; [8]
  IC50: 5.04 ± 0.86 µM
[2]; 30 mg/kg
  suppression of tumor growth: some suppression of tumor growth
[2]; Day 24, i.v. injection Q2D, escalating doses from day 8, FIGS. 1A, 1B
  tumor suppression compared to the control tumor size: 52.3%
[2]; FIGS. 1C, 1D, i.v. injections up to 100 mg/kg
  evidence of toxicity (body weight): no evidence
[2]; Q2D i.v. injection 50-100 mg/kg of multiple doses (FIG. 1A)
  MX-1 xenograft tumor growth suppressed by: 53%
[2]
  antitumor effects against MX-1 xenografts: antitumor effects
  body weight decrease upon treatment: no body weight decrease
[2]; listed as Panaxytriol
  body weight decrease upon treatment: without a drop in body-weight
[3]; FIGS. 9A, 9B
  time of maximal activation (cell counts): 24 h
[3]
  survival / proliferation of normal PBMC lymphocytes: increased the survival; also recorded: increases the proliferation and prolongs the life-span of normal lymphocytes
[4]; 0.1 μM, 24-hrs, read-out: viable cells relative to the starting point (control)
  viability at 24 h, 0.1 µM: 121%
[4]; 0.1 μM, 72-hrs, read-out: viable cells relative to the starting point (control)
  viability at 72 h, 0.1 µM: 113%
[4]; 0.1 μM, 120-hrs, read-out: viable cells relative to the starting point (control)
  viability at 120 h, 0.1 µM: 110%
[4]; 0.3 μM, 24-hrs, read-out: viable cells relative to the starting point (control)
  viability at 24 h, 0.3 µM: 140%
[4]; 0.3 μM, 72-hrs, read-out: viable cells relative to the starting point (control)
  viability at 72 h, 0.3 µM: 95.8%
[4]; 0.3 μM, 120-hrs, read-out: viable cells relative to the starting point (control)
  viability at 120 h, 0.3 µM: 105%
[4]; 1.0 μM, 24-hrs, read-out: viable cells relative to the starting point (control)
  viability at 24 h, 1 µM: 123%
[4]; 1.0 μM, 72-hrs, read-out: viable cells relative to the starting point (control)
  viability at 72 h, 1 µM: 102%
[4]; 1.0 μM, 120-hrs, read-out: viable cells relative to the starting point (control)
  viability at 120 h, 1 µM: 101%
[4]; 3.0 μM, 24-hrs, read-out: viable cells relative to the starting point (control)
  viability at 24 h, 3 µM: 104%
[4]; 3.0 μM, 72-hrs, read-out: viable cells relative to the starting point (control)
  viability at 72 h, 3 µM: 82.2%
[4]; 3.0 μM, 120-hrs, read-out: viable cells relative to the starting point (control)
  viability at 120 h, 3 µM: 74.1%
[4]; 10.0 μM, 24-hrs, read-out: viable cells relative to the starting point (control)
  viability at 24 h, 10 µM: 27.7%
[4]; 10.0 μM, 72-hrs, read-out: viable cells relative to the starting point (control)
  viability at 72 h, 10 µM: 28.5%
[4]; 10.0 μM, 120-hrs, read-out: viable cells relative to the starting point (control)
  viability at 120 h, 10 µM: 35.5%
[5]; read-out: CCRF-CEM/VBL (IC50 in μM)
  IC50: 4.43 µM
[5]; read-out: IC50 CCRF ± CEM/VBL
  IC50: 14.6 ± 6.92 µM
[5]; [9]
  IC50: 6.39 µM
[5]; Table 3
  fold resistance in brackets (IC50 CCRF-CEM/VBL vs CCRF-CEM): 1.20 x
[5]; Table 3A-2
  Fold of resistance (IC50 ratio CCRF-CEM/VBL vs CCRF-CEM): 1.20 fold
[5]
  fold of cross-resistance (CCRF-CEM/Vinblastine vs parent cell line): 1.27 fold
Leukemic CCRF CEM cells
  effect on protein synthesis: inhibitory effects
Leukemic CCRF CEM cells; 30 μM, 15 min, ↑ (activation)
  [3H]-AdR → RNA (% Activation ↑ or Inhibition ↓): 38.0 ↑ %
  [3H]-dThd → DNA (% Activation ↑ or Inhibition ↓): 21.3 ↑ %
Leukemic CCRF CEM cells; 100 μM, 60 min, ↓ (inhibition)
  [3H]-AdR → RNA (% Activation ↑ or Inhibition ↓): 74.4 ↓ %
  [3H]-dThd → DNA (% Activation ↑ or Inhibition ↓): 67.8 ↓ %
Leukemic CCRF CEM cells; 100 μM, 60 min incubation
  effect on DNA and RNA synthesis: inhibitory
Leukemic CCRF CEM cells; Homo sapiens, CCRF-CEM, 30 μM, 15 min, ↓ (inhibition), read-out: [3H] Leu → Protein (% Activation ↑ or Inhibition ↓)
  inhibition at 30 µM: 77.8%
Leukemic CCRF CEM cells; [10]
  inhibition at 100 µM: 67.8%
Leukemic CCRF CEM cells; [11]
  effect on DNA and RNA synthesis: activate
[6]; 72 h, read-out: CCRF-CEM/TAXOL (IC50 in μM)
  IC50: 3.09 µM
[6]; [12]
  IC50: 5.22 µM
[6]; Table 3A-2
  Fold of resistance (IC50 ratio CCRF-CEM/TAXOL vs CCRF-CEM): 0.84 fold
[6]
  fold of cross-resistance (CCRF-CEM/TAXOL vs parent cell line): 1.04 fold
